The text below walks through data of patent US20230093861A1, “RAPAMYCIN ANALOGS AS MTOR INHIBITORS” (Revolution Medicines, Inc., priority 2017, published 2023).

The test system of test [1] is P-P70S6K (T389). Description: Cell based AlphaLISA assay, inhibition of P-P70S6K (T389) (mTORC1 substrate phosphorylation) in MDA-MB-468 cells. The conditions noted are these: Homo sapiens, 4 h, AlphaLISA, two to four hours at 37° C., read-out: pIC50 for Inhibition of mTORC1 and mTORC2 Substrate Phosphorylation, P-P70S6K-(T389) (converted). Here is the method: (§1) Cell Based AlphaLISA Assays for Determining IC50 for Inhibition of P-Akt (S473), P-4E-BP1 (T37/46), and P-P70S6K (T389) in MDA-MB-468 Cells
(§2) mTOR Kinase Cellular Assay
(§3) To measure functional activity of mTORC1 and mTORC2 in cells the phosphorylation of 4EBP1 (Thr37/46) and P70S6K (Thr389), and AKT1/2/3 (Ser473) was monitored using AlphaLisa SureFire Ultra Kits (Perkin Elmer). […] Incubations were terminated by removal of the assay buffer and addition of lysis buffer provided with the assay kit. Samples were processed according to the manufacturer's instructions. The Alpha signal from the respective phosphoproteins was measured in duplicate using a microplate reader (Envision, Perkin-Elmer or Spectramax M5, Molecular Devices). Inhibitor concentration response curves were analyzed using normalized IC50 regression curve fitting with control based normalization.
For orientation: In Alpha technology, singlet oxygen from a donor bead excites a nearby acceptor bead.

The test system of test [2] is P-4E-BP1 (T37/46). The experiment in a line: Cell based AlphaLISA assay, inhibition of P-4E-BP1 (T37/46) (mTORC1 substrate phosphorylation) in MDA-MB-468 cells. The conditions noted are these: Homo sapiens, MDA-MB-468, 4 h, AlphaLISA, two to four hours at 37° C., read-out: pIC50 for Inhibition of mTORC1 and mTORC2 Substrate Phosphorylation, P-4E-BP1-(T37/46) (converted). Here is the method: as §1, §2, §3

The test system of test [3] is P-Akt (S473). Description: Cell based AlphaLISA assay, inhibition of P-Akt (S473) (mTORC2 substrate phosphorylation) in MDA-MB-468 cells. The following applies: Homo sapiens, MDA-MB-468, 4 h, AlphaLISA, two to four hours at 37° C., read-out: pIC50 for Inhibition of mTORC1 and mTORC2 Substrate Phosphorylation, p-AKT 1/2/3 -(S473) (converted). The protocol: as §1, §2, §3

A value given as a limit tells only on which side of the number the result lay.

Regarding `CO[C@H]1C[C@@H]2CC[C@@H](C)[C@@](O)(O2)C(=O)C(=O)N2CCCC[C@H]2C(=O)O[C@H]([C@H](C)C[C@@H]2CC[C@@H](OCc3cccc(-c4cnc(N5CCN(S(=O)(=O)CCc6cn(CCOCCOCCOCCC(=O)NCCCCn7nc(-c8ccc9oc(N)nc9c8)c8c(N)ncnc87)nn6)CC5)nc4)c3)[C@H](OC)C2)CC(=O)[C@H](C)/C=C(\C)[C@@H](O)[C@@H](OC)C(=O)[C@H](C)C[C@H](C)/C=C/C=C/C=C/1C` [Example 27], the figures for the IC50 in test [1], in test [2] and in test [3] were < 1 nM, < 3.16 nM and 3.16 to 31.6 nM, respectively.

With `CO[C@H]1C[C@@H]2CC[C@@H](C)[C@@](O)(O2)C(=O)C(=O)N2CCCC[C@H]2C(=O)O[C@H]([C@H](C)C[C@@H]2CC[C@@H](OCc3cccc(-c4cnc(N5CCN(S(=O)(=O)CCc6cn(CCOCCOCCC(=O)NCCCCn7nc(-c8ccc9oc(N)nc9c8)c8c(N)ncnc87)nn6)CC5)nc4)c3)[C@H](OC)C2)CC(=O)[C@H](C)/C=C(\C)[C@@H](O)[C@@H](OC)C(=O)[C@H](C)C[C@H](C)/C=C/C=C/C=C/1C` [Example 28], the values for the IC50 in test [1], in test [2] and in test [3] were < 1 nM, < 3.16 nM and 3.16 to 31.6 nM, respectively.

`CO[C@H]1C[C@@H]2CC[C@@H](C)[C@@](O)(O2)C(=O)C(=O)N2CCCC[C@H]2C(=O)O[C@H]([C@H](C)C[C@@H]2CC[C@H](n3nncc3-c3cccc(-c4cnc(N5CCN(Cc6cn(CCOCCOCCOCCOCCOCCC(=O)NCCCCn7nc(-c8ccc9oc(N)nc9c8)c8c(N)ncnc87)nn6)CC5)nc4)c3)[C@H](OC)C2)CC(=O)[C@H](C)/C=C(\C)[C@@H](O)[C@@H](OC)C(=O)[C@H](C)C[C@H](C)/C=C/C=C/C=C/1C` [Example 29]: the IC50 is < 1 nM in test [1], < 3.16 nM in test [2] and 3.16 to 31.6 nM in test [3].

As to `CO[C@H]1C[C@@H]2CC[C@@H](C)[C@@](O)(O2)C(=O)C(=O)N2CCCC[C@H]2C(=O)O[C@H]([C@H](C)C[C@@H]2CC[C@H](n3nncc3-c3cccc(-c4cnc(N5CCN(Cc6cn(CCOCCOCCOCCOCCC(=O)NCCCCn7nc(-c8ccc9oc(N)nc9c8)c8c(N)ncnc87)nn6)CC5)nc4)c3)[C@H](OC)C2)CC(=O)[C@H](C)/C=C(\C)[C@@H](O)[C@@H](OC)C(=O)[C@H](C)C[C@H](C)/C=C/C=C/C=C/1C` [Example 30], the IC50 was < 1 nM in test [1], < 3.16 nM in test [2] and 3.16 to 31.6 nM in test [3].

For `CO[C@H]1C[C@@H]2CC[C@@H](C)[C@@](O)(O2)C(=O)C(=O)N2CCCC[C@H]2C(=O)O[C@H]([C@H](C)C[C@@H]2CC[C@H](n3nncc3-c3cccc(-c4cnc(N5CCN(Cc6cn(CCOCCOCCOCCC(=O)NCCCCn7nc(-c8ccc9oc(N)nc9c8)c8c(N)ncnc87)nn6)CC5)nc4)c3)[C@H](OC)C2)CC(=O)[C@H](C)/C=C(\C)[C@@H](O)[C@@H](OC)C(=O)[C@H](C)C[C@H](C)/C=C/C=C/C=C/1C` [Example 31], the IC50 in test [1] was < 1 nM; in test [2], < 3.16 nM; in test [3], 3.16 to 31.6 nM.

Consider `CO[C@H]1C[C@@H]2CC[C@@H](C)[C@@](O)(O2)C(=O)C(=O)N2CCCC[C@H]2C(=O)O[C@H]([C@H](C)C[C@@H]2CC[C@H](n3nncc3-c3cccc(-c4cnc(N5CCN(Cc6cn(CCOCCOCCOCCOCCOCCC(=O)NCCCCn7nc(-c8ccc9oc(N)nc9c8)c8c(N)ncnc87)nn6)C(CO)C5)nc4)c3)[C@H](OC)C2)CC(=O)[C@H](C)/C=C(\C)[C@@H](O)[C@@H](OC)C(=O)[C@H](C)C[C@H](C)/C=C/C=C/C=C/1C` (stereo partly drawn) [Example 32], for which the IC50 was 1 to 10 nM in test [1], 3.16 to 31.6 nM in test [2] and 3.16 to 31.6 nM in test [3].

In the case of `CO[C@H]1C[C@@H]2CC[C@@H](C)[C@@](O)(O2)C(=O)C(=O)N2CCCC[C@H]2C(=O)O[C@H]([C@H](C)C[C@@H]2CC[C@H](n3nncc3-c3cccc(-c4cnc(N5CCN(Cc6cn(CCOCCOCCOCCOCCC(=O)NCCCCn7nc(-c8ccc9oc(N)nc9c8)c8c(N)ncnc87)nn6)C(CO)C5)nc4)c3)[C@H](OC)C2)CC(=O)[C@H](C)/C=C(\C)[C@@H](O)[C@@H](OC)C(=O)[C@H](C)C[C@H](C)/C=C/C=C/C=C/1C` (stereo partly drawn) [Example 33], the IC50 in test [1] was 1 to 10 nM; in test [2], 3.16 to 31.6 nM; in test [3], 3.16 to 31.6 nM.

On to `CO[C@H]1C[C@@H]2CC[C@@H](C)[C@@](O)(O2)C(=O)C(=O)N2CCCC[C@H]2C(=O)O[C@H]([C@H](C)C[C@@H]2CC[C@H](n3nncc3-c3cccc(-c4cnc(N5CCN(Cc6cn(CCOCCOCCOCCC(=O)NCCCCn7nc(-c8ccc9oc(N)nc9c8)c8c(N)ncnc87)nn6)C(CO)C5)nc4)c3)[C@H](OC)C2)CC(=O)[C@H](C)/C=C(\C)[C@@H](O)[C@@H](OC)C(=O)[C@H](C)C[C@H](C)/C=C/C=C/C=C/1C` (stereo partly drawn) [Example 34], for which the IC50 is 1 to 10 nM in test [1], 3.16 to 31.6 nM in test [2] and 31.6 to 1000 nM in test [3].

Take `CO[C@H]1C[C@@H]2CC[C@@H](C)[C@@](O)(O2)C(=O)C(=O)N2CCCC[C@H]2C(=O)O[C@H]([C@H](C)C[C@@H]2CC[C@H](n3nncc3-c3cccc(-c4cnc(N5CCN(S(=O)(=O)CCc6cn(CCOCCOCCOCCC(=O)NCCCCn7nc(-c8ccc9oc(N)nc9c8)c8c(N)ncnc87)nn6)CC5)nc4)c3)[C@H](OC)C2)CC(=O)[C@H](C)/C=C(\C)[C@@H](O)[C@@H](OC)C(=O)[C@H](C)C[C@H](C)/C=C/C=C/C=C/1C` [Example 35]: the figures for the IC50 in test [1], in test [2] and in test [3] were < 1 nM, < 3.16 nM and 3.16 to 31.6 nM, respectively.

With `CO[C@H]1C[C@@H]2CC[C@@H](C)[C@@](O)(O2)C(=O)C(=O)N2CCCC[C@H]2C(=O)O[C@H]([C@H](C)C[C@@H]2CC[C@H](n3nncc3-c3cccc(-c4cnc(N5CCN(S(=O)(=O)CCc6cn(CCOCCOCCC(=O)NCCCCn7nc(-c8ccc9oc(N)nc9c8)c8c(N)ncnc87)nn6)CC5)nc4)c3)[C@H](OC)C2)CC(=O)[C@H](C)/C=C(\C)[C@@H](O)[C@@H](OC)C(=O)[C@H](C)C[C@H](C)/C=C/C=C/C=C/1C` [Example 36], the IC50 was < 1 nM in test [1], 3.16 to 31.6 nM in test [2] and 3.16 to 31.6 nM in test [3].

As for `CO[C@H]1C[C@@H]2CC[C@@H](C)[C@@](O)(O2)C(=O)C(=O)N2CCCC[C@H]2C(=O)O[C@H]([C@H](C)C[C@@H]2CC[C@H](n3nncc3-c3cccc(-c4cnc(N5CCN(S(=O)(=O)CCc6cn(CCOCCOCCOCCOCC(=O)NCCCCn7nc(-c8ccc9oc(N)nc9c8)c8c(N)ncnc87)nn6)CC5)nc4)c3)[C@H](OC)C2)CC(=O)[C@H](C)/C=C(\C)[C@@H](O)[C@@H](OC)C(=O)[C@H](C)C[C@H](C)/C=C/C=C/C=C/1C` [Example 37], the results for the IC50 in test [1], in test [2] and in test [3] were < 1 nM, < 3.16 nM and 3.16 to 31.6 nM, respectively.

With `COC(=O)NC1C[C@@H]2CC[C@@H](C)[C@@](O)(O2)C(=O)C(=O)N2CCCC[C@H]2C(=O)O[C@H]([C@H](C)C[C@@H]2CC[C@@H](OCCCCc3cn(CCOCCOCCOCCOCCOCCOCCOCCOCCC(=O)NCCCCn4nc(-c5ccc6oc(N)nc6c5)c5c(N)ncnc54)nn3)[C@H](OC)C2)CC(=O)[C@H](C)/C=C(\C)[C@@H](O)[C@@H](OC)C(=O)[C@H](C)C[C@H](C)/C=C/C=C/C=C/1C` (stereo partly drawn) [Example 38], the IC50 was 1 to 10 nM in test [1], 3.16 to 31.6 nM in test [2] and 31.6 to 1000 nM in test [3].

Turning to `COC(=O)NC1C[C@@H]2CC[C@@H](C)[C@@](O)(O2)C(=O)C(=O)N2CCCC[C@H]2C(=O)O[C@H]([C@H](C)C[C@@H]2CC[C@@H](OCCCCc3cn(CCOCCOCCOCCOCCOCCOCCC(=O)NCCCCn4nc(-c5ccc6oc(N)nc6c5)c5c(N)ncnc54)nn3)[C@H](OC)C2)CC(=O)[C@H](C)/C=C(\C)[C@@H](O)[C@@H](OC)C(=O)[C@H](C)C[C@H](C)/C=C/C=C/C=C/1C` (stereo partly drawn) [Example 39], the IC50 in test [1] was 1 to 10 nM; in test [2], 31.6 to 1000 nM; in test [3], 31.6 to 1000 nM.

On to `CO[C@H]1C[C@@H]2CC[C@@H](C)[C@@](O)(O2)C(=O)C(=O)N2CCCC[C@H]2C(=O)O[C@H]([C@H](C)C[C@@H]2CC[C@@H](OCCCCc3cn(CCOCCOCCOCCOCCOCCOCCOCCOCCC(=O)NCCCCn4nc(-c5cccc(C(=O)NC6=NCCS6)c5)c5c(N)ncnc54)nn3)[C@H](OC)C2)CC(=O)[C@H](C)/C=C(\C)[C@@H](O)[C@@H](OC)C(=O)[C@H](C)C[C@H](C)/C=C/C=C/C=C/1C` [Example 40], for which the IC50 is < 1 nM in test [1], < 3.16 nM in test [2] and 31.6 to 1000 nM in test [3].
